From patent publication US6528245B2, “Bone marrow cells as a source of neurons for brain and spinal cord repair” (University of South Florida, priority 1998, dated 2003)

What was measured:
human BMSC = assay: In vitro differentiation of human BMSC; immunocytochemistry and Western blot; assay type: cell-based; conditions: replated in medium containing the mitogen
Excerpt: To briefly summarize, BMSC were separated from whole bone marrow of the mouse, calf and humans.
BMSC were isolated from residual bone marrow material (bone chips with adherent stromal cells, fatty tissue and debris) which was retained on the nylon mesh filters routinely used in filtering freshly procured human marrow to be used for bone marrow transplantation. The filtrate contains the bulk of the bone marrow hematopoietic elements that is then processed for human bone marrow replacement. We use the filters that were usually discarded. The filters were back washed five times with PBS. The PBS solution was centrifuged to deposit the heavier bone chips. The supernatant was resuspended in culture medium and plated in tissue culture flasks (as in Example 1). BMSC were separated by their adherence to plastic culture flasks, whereas the smaller hematopoietic stem cells remained suspended in the media and were removed when the culture media was replaced with fresh media. […]
After 7 days, expressions of neuronal markers (Nestin, Neuron Specific Nuclear protein or NeuN and GFAP) and a bone marrow stromal cell marker (fibronectin) were analyzed by Western blot analysis and immunocytochemistry (FIG. 6). […]

MSCs = conditions: 1 μg/ml, alone; cited from earlier work

| Molecule | proliferation and differentiation of human bone marrow cells (human BMSC) | differentiation of MSCs into myoblasts and myotubes (MSCs) |
| --- | --- | --- |
| EGF: epidermal growth factor, mitogen used at 10 ng/ml (NSDSECPLSHDGYCLHDGVCMYIEALDKYACNCVVGYIGERCQYRDLKWWELR; Epidermal growth factor; UniProt P01133 971-1023, looked up) | proliferation of cells, without significant induction of differentiation |  |
| C[C@@H]1[C@H](O)[C@@H](C)/C=C/C=C/C=C/C=C/C=C/C=C/C=C/[C@H](O[C@@H]2O[C@H](C)[C@@H](O)[C@H](N)[C@@H]2O)C[C@@H]2O[C@](O)(C[C@@H](O)C[C@@H](O)[C@H](O)CC[C@@H](O)C[C@@H](O)CC(=O)O[C@H]1C)C[C@H](O)[C@H]2C(=O)O [amphotericin B] |  | differentiate into myoblasts and myotubes |
